Source: ChEMBL document CHEMBL6078716, “Advances in Psychedelic Therapeutics: Novel Prodrugs and Derivatives for Enhanced Mental Health Treatment” (ACS Med Chem Lett, 2024)

Experiments:
[1] = molecular target: T1, 5-hydroxytryptamine receptor 1A (Homo sapiens, UniProt P08908); experiment: Binding affinity to 5-HT1A receptor (unknown origin) expressed in HEK293 cells assessed as inhibition constant; type: cell-based
T1 sequence (P08908 whole entry): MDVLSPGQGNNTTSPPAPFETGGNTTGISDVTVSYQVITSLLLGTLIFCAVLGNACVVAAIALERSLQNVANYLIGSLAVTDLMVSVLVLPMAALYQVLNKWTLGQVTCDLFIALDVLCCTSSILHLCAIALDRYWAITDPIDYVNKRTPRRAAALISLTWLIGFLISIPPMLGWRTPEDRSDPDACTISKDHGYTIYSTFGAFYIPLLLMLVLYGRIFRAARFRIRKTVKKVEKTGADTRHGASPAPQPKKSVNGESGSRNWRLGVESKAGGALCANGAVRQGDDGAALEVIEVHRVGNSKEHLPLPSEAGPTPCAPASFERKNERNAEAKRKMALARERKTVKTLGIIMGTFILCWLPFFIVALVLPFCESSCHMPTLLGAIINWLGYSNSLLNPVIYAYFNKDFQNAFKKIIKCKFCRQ

[2] = molecular target: 5-hydroxytryptamine receptor 2A (Homo sapiens, UniProt P28223); experiment: Binding affinity to 5-HT2A receptor (unknown origin) expressed in HEK293 cells assessed as inhibition constant; type: cell-based
5-hydroxytryptamine receptor 2A, sequence (P28223 whole entry): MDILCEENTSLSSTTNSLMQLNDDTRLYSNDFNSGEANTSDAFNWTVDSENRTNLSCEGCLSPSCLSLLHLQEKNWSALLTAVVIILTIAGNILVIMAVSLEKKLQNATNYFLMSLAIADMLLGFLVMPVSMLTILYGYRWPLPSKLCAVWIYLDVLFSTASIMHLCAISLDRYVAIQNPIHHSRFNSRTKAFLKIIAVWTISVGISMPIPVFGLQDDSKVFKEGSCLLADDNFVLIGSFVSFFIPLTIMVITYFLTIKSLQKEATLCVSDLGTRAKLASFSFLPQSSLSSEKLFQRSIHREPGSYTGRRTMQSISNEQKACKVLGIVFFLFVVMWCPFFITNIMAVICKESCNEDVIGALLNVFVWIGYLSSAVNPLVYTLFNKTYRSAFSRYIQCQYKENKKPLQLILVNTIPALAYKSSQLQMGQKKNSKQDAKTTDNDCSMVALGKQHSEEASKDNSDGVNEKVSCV

Row | Compound | Ki [1] [µM] | Ki [2] [µM]
1 | CN(C)CCc1c[nH]c2cccc(O)c12 [PSILOCIN] | 0.567 | –
2 | CN(C)CCc1c[nH]c2cccc(OP(=O)(O)O)c12 [PSILOCYBIN] | > 10 | > 10
